≈ marks a conversion by molar mass, not a printed value. Entries after “also recorded” stand apart in the source; their conditions may differ. Where two headings read alike, the source gives them in different places.
How the values were obtained:
ConA cells = test: Drug sensitivity (growth inhibition) assay, ConA cells; format: cell-based, mouse; settings: for IC50: Mus musculus, murine ConA cells, read-out: 50% growth inhibitory dose of the drug
Experimental: Drug sensitivity assays. To estimate drug-mediated growth inhibition, 10^3 cells were plated per well of 96-well plates, and incubated with a range of concentrations of drugs added 24 hours after plating. […] After elution by 1% SDS solution, optical density was determined on a Multiscan Ascent reader (Lybsystems, Helsinki, Finland) at 650 nm.

P-gp [1] = test: Rho123 efflux from preloaded ConA cells; format: cell-based, mouse; design: increase of efflux of Rho123 from cells preloaded with the dye: dose or concentration left out as unconfirmed
Experimental: (§1) Drug accumulation and efflux assay. […] For drug efflux assay, cells after drug incubation were washed thoroughly with PBS, incubated in a drug-free media with or without compounds from the chemical library, and harvested at different time points for flow cytometric analysis (18).
The dynamics of reduction of Rho123 fluorescence was monitored by flow cytometry.

P-gp [2] = target: T1, P-gp (Homo sapiens, UniProt P08183); test: Drug resistance of mouse ConA cells expressing human P-gp (MDR1 cDNA transfection); format: cell-based; design: expressed in transfected cells; host or cells: mouse fibroblasts, line ConA, transfected with MDR1 cDNA in LNL6 (Mo-MuLV LTR promoter)
T1 sequence (P08183 whole entry): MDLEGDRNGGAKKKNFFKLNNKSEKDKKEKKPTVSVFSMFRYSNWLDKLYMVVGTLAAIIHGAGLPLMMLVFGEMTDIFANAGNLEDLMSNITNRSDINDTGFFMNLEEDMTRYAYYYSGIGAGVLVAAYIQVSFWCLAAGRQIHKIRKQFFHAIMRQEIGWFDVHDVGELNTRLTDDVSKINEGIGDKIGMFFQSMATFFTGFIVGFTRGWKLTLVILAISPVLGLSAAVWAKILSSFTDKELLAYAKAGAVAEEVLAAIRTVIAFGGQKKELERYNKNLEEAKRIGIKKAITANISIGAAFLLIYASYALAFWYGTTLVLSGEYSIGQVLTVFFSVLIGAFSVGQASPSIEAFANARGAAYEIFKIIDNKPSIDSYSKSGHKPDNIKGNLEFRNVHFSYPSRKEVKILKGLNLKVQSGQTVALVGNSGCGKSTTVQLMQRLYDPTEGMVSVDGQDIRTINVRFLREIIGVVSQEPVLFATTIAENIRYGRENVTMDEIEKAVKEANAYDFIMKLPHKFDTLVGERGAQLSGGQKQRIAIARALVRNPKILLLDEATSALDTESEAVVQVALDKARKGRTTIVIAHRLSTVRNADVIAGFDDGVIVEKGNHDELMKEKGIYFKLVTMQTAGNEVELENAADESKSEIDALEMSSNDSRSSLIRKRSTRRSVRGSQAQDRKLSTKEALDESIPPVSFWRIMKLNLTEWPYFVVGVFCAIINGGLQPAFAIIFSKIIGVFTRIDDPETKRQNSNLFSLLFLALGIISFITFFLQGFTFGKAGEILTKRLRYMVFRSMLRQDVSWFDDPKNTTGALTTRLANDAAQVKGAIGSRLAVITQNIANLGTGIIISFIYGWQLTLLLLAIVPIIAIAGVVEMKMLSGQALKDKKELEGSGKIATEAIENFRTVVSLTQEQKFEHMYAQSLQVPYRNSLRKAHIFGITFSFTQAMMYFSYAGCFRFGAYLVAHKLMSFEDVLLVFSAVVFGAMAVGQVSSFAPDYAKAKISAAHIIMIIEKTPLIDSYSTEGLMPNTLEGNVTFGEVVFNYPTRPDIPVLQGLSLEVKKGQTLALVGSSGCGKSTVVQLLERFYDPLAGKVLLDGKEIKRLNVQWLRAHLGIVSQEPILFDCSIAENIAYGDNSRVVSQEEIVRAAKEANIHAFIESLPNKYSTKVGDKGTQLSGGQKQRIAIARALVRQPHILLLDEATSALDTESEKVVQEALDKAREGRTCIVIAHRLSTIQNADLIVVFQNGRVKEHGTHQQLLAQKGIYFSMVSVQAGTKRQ
Description: These cells are known to overexpress P-gp as result of MDR1 gene amplification. To completely eliminate possibility that some other ABC type transporter expressed in KB-8-5-11 cells might be responsible for this phenomenon, mouse fibroblasts, line ConA, permanently expressing human P-gp as a result of transfection with MDR1 cDNA-expressing plasmid LNL6 were used.

KB-3-1 cells = test: Drug sensitivity assay, KB-3-1 cells (P-gp-negative); format: cell-based, human
Experimental: (§2) Drug sensitivity assays. To estimate drug-mediated growth inhibition, 10^3 cells were plated per well of 96-well plates, and incubated with a range of concentrations of drugs added 24 hours after plating. After 5 to […] of drug treatment, plates were fixed and stained using 2% methylene blue solution in 50% methanol. After elution by 1% SDS solution, optical density was determined on a Multiscan Ascent reader (Lybsystems, Helsinki, Finland) at 650 nm.
(§3) To determine transporter specificity of the identified compounds, the compounds were tested on cells differing in the type of multidrug transporter expressed: KB-8-5-11 cells, (expressing P-gp), SW1753-A120 cells (expressing MRP1), and KB-3-1 (expressing neither of the above transporters and highly sensitive to drugs that are P-gp or MRP1 substrates).

P-gp [3] = target: T1, P-gp; test: P-gp-mediated efflux of taxol by KB-8-5-11 cells; format: cell-based; design: overexpressing P-gp as a result of MDR1 gene amplification (20); endogenous in cells; host or cells: KB-8-5-11 (multidrug resistant derivative of KB-3-1)
Description: (§4) Drug accumulation and efflux assay.
Consistent with the drug sensitivity data, Compound 102 suppressed P-gp-mediated efflux of taxol by KB-8-5-11 cells, acting as a P-gp inhibitor for this drug (FIGS. 4 and 5). These observations indicate that Compound 102 should be defined as a modulator rather than a general activator of P-gp that acts by changing relative substrate specificity of the transporter.

P-gp [4] = target: T1, P-gp; test: Rho123 accumulation in KB-8-5-11 cells; format: cell-based; design: overexpressing P-gp as a result of MDR1 gene amplification (20); endogenous in cells; host or cells: KB-8-5-11 (multidrug resistant derivative of KB-3-1); settings: KB-8-5-11 cells overexpressing P-gp
Description: as §4
To test the effect of Compound 102 specifically on P-gp, a pair of human cell lines used as conventional models for studying P-gp, i.e., P-gp-negative KB-3-1 and its multidrug resistant derivative KB-8-5-11, overexpressing P-gp as a result of MDR1 gene amplification (20), were used.

mouse ConA cells = test: DMBA sensitivity of mouse cells; format: cell-based
Experimental: (§5) The effect of the identified compounds on DMBA sensitivity of mouse cells also was tested. It has been reported that ABC type transporters (e.g., P-gp) are involved in the efflux of polycyclic aromatic hydrocarbon carcinogens from cells. The effect of the identified compounds on sensitivity of mouse cells to 7,12-dimethylbenz[a]anthracene (DMBA) was determined. […].

SW1753-A120 cells = test: Drug sensitivity assay, SW1753-A120 cells (expressing MRP1); format: cell-based; settings: P-gp-negative; for cell sensitivity to vinblastine: MRP1-positive cells SW1753-A120 (FIG. 13)
Experimental: as §3

KB-8-5-11 cells = test: Drug sensitivity assay, KB-8-5-11 cells (P-gp-positive); format: cell-based, human; settings: for IC50: Homo sapiens, human KB-8-5-11 cells, read-out: 50% growth inhibitory dose of the drug
Experimental: as §2, §3

[5] = DMBA sensitivity of mouse cells; format: cell-based; settings: mouse fibroblasts, three days, without Compound 102; read-out: IC50 of DMBA cytotoxicity
Experimental: as §5

P-gp [6] = tested on: P-gp
Experimental: as §2, §1

P-gp [7] = target: T1, P-gp
P-gp [8] = target: T1, P-gp; remark: listed apart in the source
P-gp [9] = test: Rho123 accumulation in ConA cells; format: cell-based, mouse; settings: identified compounds present
Experimental: Screening of a chemical library. Murine fibroblastoid cell line (ConA) was selected as the readout system for screening a chemical library for P-gp activators. […] Rho123, a classic fluorescent P-gp substrate that is detected easily using multichannel fluorimeter in living cells, was used as an efflux indicator. […] Primary screening was performed on ConA cells for compounds that interfere with Adr-induced activation of p53-responsive reporter LacZ gene as previously described (11). To identify P-gp modulators, all “hits” isolated after primary screening were tested for their ability to modulate cellular accumulation of Rho123. Con A cells grown in 96-well plates were incubated 4 hours with 0.5 μM Rho123 in combination with individual library compounds (2 μg/ml (2-5 μM)), and cell fluorescence was analyzed using fluorescent microscopy.
as §1
ConA cells were incubated two hours with Rho123 ([…]) or daunorubicin (500 ng/ml) in the presence of the identified compounds, and accumulation of the drugs was quantitated by flow cytometry.

Cc1ccc(-c2cn3c4c(sc3n2)CCCC4)cc1 [Compound 102, 2-p-Tolyl-5,6,7,8-tetrahydro-benzo[d]imidazo[2,1-b]thiazole]
cell sensitivity to colcemide (ConA cells; ConA cells grown 72 hours with drug with or without Compound 102 (FIG. 6)): no effect | increase of efflux of Rho123 from cells preloaded with the dye (P-gp [1]; ConA cells loaded with Rho123, Rho123-free medium, with vs without Compound 102 (FIGS. 2 and 3)): about 20 times | resistance to doxorubicin (P-gp [2]; mouse ConA fibroblasts expressing human P-gp (FIG. 10)): increased resistance | resistance to vinblastine (P-gp [2]; mouse ConA fibroblasts expressing human P-gp (data not shown)): decreased resistance | effect on drug sensitivity (KB-3-1 cells; P-gp-negative cell line KB-3-1): No effect | P-gp-mediated efflux of taxol (P-gp [3]): suppressed | Rho123 accumulation (P-gp [4]): strongly decreased | protection of cells from cytotoxicity of DMBA (mouse ConA cells): strongly protects | increase of natural level of resistance to DMBA (mouse ConA cells; mouse fibroblasts, 10 μM Compound 102): greater than 15 fold | cell sensitivity to vinblastine (SW1753-A120 cells): no effect | cell sensitivity to doxorubicin (SW1753-A120 cells; MRP1-positive cells SW1753-A120 (FIG. 16)): no effect

Cc1ccccc1Cn1c(=O)sc2ccccc21 [Compound 103]
cell sensitivity to vinblastine (KB-3-1 cells; P-gp- and MRP1-negative cells KB-3-1 (FIG. 14)): weak sensitizing effect | cell sensitivity to doxorubicin (KB-3-1 cells; P-gp- and MRP1-negative cells KB-3-1 (FIG. 17)): can increase cell resistance | cell sensitivity to doxorubicin (KB-8-5-11 cells; P-gp-positive cells KB-8-5-11 (FIG. 15)): increase cell sensitivity | cell sensitivity to vinblastine (SW1753-A120 cells): increases; also recorded: weak sensitizing effect

Cc1c2ccccc2c(C)c2c1ccc1ccccc12 [DMBA, 7,12-dimethylbenz[a]anthracene]
IC50 at 3 days [5]: 310 nM | IC50 (mouse ConA cells; Mus musculus, Fibroblast, 72 h, read-out: IC50 of DMBA cytotoxicity): 5000 nM

COc1cccc2c1C(=O)c1c(O)c3c(c(O)c1C2=O)C[C@@](O)(C(=O)CO)C[C@@H]3O[C@H]1C[C@H](N)[C@H](O)[C@H](C)O1 [Doxorubicin, adriamycin]
cytotoxicity of the drug in the presence of Compound 102 (P-gp [6]): less toxic | Change in sensitivity (x-fold) (ConA cells; ConA cells, Compound 102 (10 μM), fold resistance): 6 x-fold | IC50 (ConA cells; with Compound 102): 0.3 µg/mL (≈ 0.552 µM) | IC50 (ConA cells; without Compound 102): 0.05 µg/mL (≈ 0.092 µM) | Effect of Compound 102 on drug sensitivity of cell lines: ConA (Balb 3T3) (ConA cells; P-gp-positive ConA cells, label = drug): R | IC50 (KB-8-5-11 cells; with Compound 102): 1.2 µg/mL (≈ 2.21 µM) | IC50 (KB-8-5-11 cells; without Compound 102): 0.2 µg/mL (≈ 0.368 µM)

CC(=O)[C@H]1CC[C@H]2[C@@H]3CCC4=CC(=O)CC[C@]4(C)[C@H]3CC[C@]12C [progesterone]
effect on P-gp-mediated Rho123 efflux (P-gp [7]): weak effect | changes in cell cross resistance to P-gp substrates tested (P-gp [8]): did not cause detectable changes

COC(=O)[C@H]1[C@H]2C[C@@H]3c4[nH]c5cc(OC)ccc5c4CCN3C[C@H]2C[C@@H](OC(=O)c2cc(OC)c(OC)c(OC)c2)[C@@H]1OC [reserpine]
effect of P-gp inhibitor on compound-mediated reduction of Adr and Rho123 accumulation (P-gp [9]): completely reverted | effect of P-gp inhibitor on Compound 102-stimulated Rho123 efflux (P-gp [1]; ConA cells preloaded with Rho123, Compound 102 present): completely reverted
